Patent US10179153B2, “Probiotic and prebiotic compositions” (AQUILON CYL SOCIEDAD LIMITADA, priority 2014, dated 2019)
≈ marks a conversion by molar mass, not a printed value.

Columns and labels:
AqSynRMH69 strain [1] = details: cut-off used for AqSynRMH69 (Lactobacillus reuteri); cited from earlier work
AqSynJ59 strain [2] = details: cut-off used for AqSynJ59 (Lactobacillus plantarum); cited from earlier work
AqSynRMH69 strain [3] = assay: In vitro test of minimal inhibitory concentration (MIC) of antibiotics; type: cell-based, Lactobacillus reuteri; details: for MIC, LSM: LAB susceptibility test medium pH 6.7, unit assumed; for Category: MIC compared with EFSA cut-off
Description: The evaluated antibiotics may be the following: Ampicillin, Vancomicin, Gentamicin, Kanamycin, Streptomycin, Eritromycin, Clindamycin, Tetracyclin and Chloranphenicol. An in vitro test of minimal inhibitory concentration (MIC) aimed to evaluate antibiotic resistances was performed for the above strains (AqSynJ59 and […]69). The evaluated antibiotics were the following: Ampicillin, Vancomicin, Gentamicin, Kanamycin, Streptomycin, Clindamycin, Tetracyclin and Chloranphenicol. The microbiological cut-off values that were used for evaluating the antibiotic resistances of the strains of the present invention are the ones defined in the “Guidance on the assessment of bacterial susceptibility to antimicrobials of human and veterinary importance”, EFSA Panel on Additives and Products or Substances used in Animal Feed ([…]), European Food Safety Authority (EFSA), Parma, Italy.

AqSynJ59 strain [4] = assay: as above; type: cell-based, Lactobacillus plantarum; details: for MIC, LSM: LAB susceptibility test medium pH 6.7, unit assumed; for Category: MIC compared with EFSA cut-off
Description: An in vitro test of minimal inhibitory concentration (MIC) aimed to evaluate antibiotic resistances was performed for the above strains (AqSynJ59 and […]69). […] The microbiological cut-off values that were used for evaluating the antibiotic resistances of the strains of the present invention are the ones defined in the “Guidance on the assessment of bacterial susceptibility to antimicrobials of human and veterinary importance”, EFSA Panel on Additives and Products or Substances used in Animal Feed ([…]), European Food Safety Authority (EFSA), Parma, Italy.

## CC1(C)S[C@@H]2[C@H](NC(=O)[C@H](N)c3ccccc3)C(=O)N2[C@H]1C(=O)O [Ampicillin]
AqSynRMH69 strain [1]
  EFSA (2012) values (microbiological cut-off): 2
AqSynJ59 strain [2]
  EFSA (2012) values (microbiological cut-off): 2
AqSynRMH69 strain [3]
  MIC, LSM: 0.25 mg/L (≈ 0.715 µM)
  Category: S

## O=C(N[C@H](CO)[C@H](O)c1ccc([N+](=O)[O-])cc1)C(Cl)Cl [Chloramphenicol]
AqSynRMH69 strain [1]
  EFSA (2012) values (microbiological cut-off): 4
AqSynJ59 strain [2]
  EFSA (2012) values (microbiological cut-off): 8
AqSynRMH69 strain [3]
  MIC, LSM: 2 mg/L (≈ 6.19 µM)
  Category: S
AqSynJ59 strain [4]
  MIC, LSM: 2 mg/L (≈ 6.19 µM)
  Category: S

## CCC[C@@H]1C[C@@H](C(=O)N[C@@H]([C@H]2O[C@H](SC)[C@H](O)[C@@H](O)[C@H]2O)[C@H](C)Cl)N(C)C1 [Clindamycin]
AqSynRMH69 strain [3]
  MIC, LSM: 0.125 mg/L (≈ 0.294 µM)
  Category: S
AqSynJ59 strain [4]
  MIC, LSM: 0.125 mg/L (≈ 0.294 µM)
  Category: S

## NC[C@H]1O[C@H](O[C@H]2[C@H](O)[C@@H](O[C@H]3O[C@H](CO)[C@@H](O)[C@H](N)[C@H]3O)[C@H](N)C[C@@H]2N)[C@H](O)[C@@H](O)[C@@H]1O [Kanamycin]
AqSynRMH69 strain [3]
  MIC, LSM: 64 mg/L (≈ 132 µM)
  Category: S
AqSynJ59 strain [4]
  MIC, LSM: 64 mg/L (≈ 132 µM)
  Category: S

## [H]/N=C(/N)N[C@H]1[C@H](O)[C@@H](O)[C@H](O[C@@H]2O[C@@H](C)[C@](O)(C=O)[C@H]2O[C@@H]2O[C@@H](CO)[C@H](O)[C@@H](O)[C@@H]2NC)[C@@H](N/C(N)=N\[H])[C@@H]1O [Streptomycin]
AqSynRMH69 strain [1]
  EFSA (2012) values (microbiological cut-off): 64
AqSynRMH69 strain [3]
  MIC, LSM: 32 mg/L (≈ 55 µM)
  Category: S
AqSynJ59 strain [4]
  MIC, LSM: 32 mg/L (≈ 55 µM)

## CN(C)[C@@H]1C(O)=C(C(N)=O)C(=O)[C@@]2(O)C(O)=C3C(=O)c4c(O)cccc4[C@@](C)(O)[C@H]3C[C@@H]12 [Tetracycline]
AqSynRMH69 strain [3]
  MIC, LSM: 4 mg/L (≈ 9 µM)
  Category: S
AqSynJ59 strain [4]
  MIC, LSM: 4 mg/L (≈ 9 µM)
  Category: S

## CN[C@H](CC(C)C)C(=O)N[C@H]1C(=O)N[C@@H](CC(N)=O)C(=O)N[C@H]2C(=O)N[C@H]3C(=O)N[C@H](C(=O)N[C@H](C(=O)O)c4cc(O)cc(O)c4-c4cc3ccc4O)[C@H](O)c3ccc(c(Cl)c3)Oc3cc2cc(c3O[C@@H]2O[C@H](CO)[C@@H](O)[C@H](O)[C@H]2O[C@H]2C[C@](C)(N)[C@H](O)[C@H](C)O2)Oc2ccc(cc2Cl)[C@H]1O [Vancomycin]
AqSynRMH69 strain [3]
  MIC, LSM: 512 mg/L (≈ 353 µM)
  Category: R
AqSynJ59 strain [4]
  MIC, LSM: 512 mg/L (≈ 353 µM)

## Gentamicin
AqSynRMH69 strain [1]
  EFSA (2012) values (microbiological cut-off): 8
AqSynJ59 strain [2]
  EFSA (2012) values (microbiological cut-off): 16
AqSynRMH69 strain [3]
  MIC, LSM: 2 mg/L
  Category: S
AqSynJ59 strain [4]
  MIC, LSM: 1 mg/L
  Category: S
